Assay results: the Bradley open melting point set (2014)
“And” between values parts separate entries of the source, which are not always exact repeats. Identical values can stand only once.

Point of comparison: `CCCCCC(=O)O` [hexanoic acid], melting point -1.9 °C. Against it:
- CC(=O)OCC(COC(C)=O)OC(C)=O [glycerol triacetate] — higher, 3 °C
- OCC(O)CO [glycerol] — higher, 18 °C
- O=CC=O [glyoxal] — higher, 15 °C
- COC1=CC(=O)C[C@@H](C)[C@]12Oc1c(Cl)c(OC)cc(OC)c1C2=O [griseofulvin] — higher, 219 °C
- COc1cc(OC)c2c(c1Cl)O[C@]1(C2=O)C(OC)CC(=O)C[C@H]1C (stereo partly specified) [griseofulvin] — higher, 220 °C
- O=C1CN=C(c2ccccc2)c2cc(Cl)ccc2N1CC(F)(F)F [halazepam] — higher, 164 °C
- O=C(CCCN1CCC(O)(c2ccc(Cl)cc2)CC1)c1ccc(F)cc1 [haloperidol] — higher, 148 °C
- O=C1CN2CCOC2(c2ccccc2F)c2cc(Br)ccc2N1 (stereo unspecified) [haloxazolam] — higher, 185 °C
- Brc1c(Br)c(Br)c(Br)c(Br)c1Br [hexabromobenzene] — higher, 306 °C
- C[Si]1(C)O[Si](C)(C)O[Si](C)(C)O1 [hexamethylcyclotrisiloxane] — higher, 65 °C
- c1ccc([Si]2(c3ccccc3)O[Si](c3ccccc3)(c3ccccc3)O[Si](c3ccccc3)(c3ccccc3)O2)cc1 [hexaphenylcyclotrisiloxane] — higher, 180 °C
- c1ccc([Si](c2ccccc2)(c2ccccc2)[Si](c2ccccc2)(c2ccccc2)c2ccccc2)cc1 [hexaphenyldisilane] — higher, 369 °C
- CCCCCCOC(C)=O [hexyl_acetate] — lower, -80 °C
- NS(=O)(=O)c1cc2c(cc1Cl)NCNS2(=O)=O [hydrochlorothiazide] — higher, 270 °C
- CC12CCC(=O)C=C1CCC1C2C(O)CC2(C)C1CCC2(O)C(=O)CO (stereo unspecified) [hydrocortisone] — higher, 223 °C
- NS(=O)(=O)c1cc2c(cc1C(F)(F)F)NCNS2(=O)=O [hydroflumethiazide] — higher, 272 °C
- Oc1ccc(O)cc1 [hydroquinone] [listing 1 of 2 here] — higher, 175 °C
- Oc1ccc(O)cc1 [hydroquinone] [listing 2 of 2 here] — higher, 172 °C
- CC(=O)Oc1ccc(OC(C)=O)cc1 [hydroquinone_diacetate] — higher, 125 °C
- CC(C)Cc1ccc(C(C)C(=O)O)cc1 (stereo unspecified) [ibuprofen] — higher, 76 °C
- N#Cc1ccc2cc[nH]c2c1 [indole-6-carbonitrile] — higher, 130 °C
- c1ccc2[nH]ccc2c1 [indole] — higher, 52 °C
- Ic1ccccc1 [iodobenzene] — lower, -31 °C
- CCCCC1=NC2(CCCC2)C(=O)N1Cc1ccc(-c2ccccc2-c2nnn[nH]2)cc1 [irbesartan] — higher, 180 °C
- CC(C)CB(O)O [isobutylboronic acid] — higher, 109 °C
- CC(C)C=O [isobutyraldehyde] — lower, -65 °C
- CC(C)C#N [isobutyronitrile] — lower, -72 °C
- Cc1cc(C(=O)NNCc2ccccc2)no1 [isocarboxazid] — higher, 106 °C
- NNC(=O)c1ccncc1 [isoniazid] — higher, 171 °C
- NC(=O)c1ccncc1 [isonicotinamide] — higher, 157 °C
- CCOC(=O)c1cccc(C(=O)O)c1 [isophthalic acid, monoethyl ester] — higher, 109 °C
- N#Cc1cccc(C#N)c1 [isophthalonitrile] — higher, 161 °C
- CC(C)N [isopropylamine] — lower, -101 °C
- [O-][n+]1ccc2ccccc2c1 [isoquinoline n-oxide] — higher, 104 °C
- OC1COC2C(O)COC12 (stereo unspecified) [isosorbide] — higher, 61 °C
- Oc1noc2nc3ccccc3nc12 [isoxazolo[4,5-b]quinoxalin-3(2H)-one] — higher, 323 °C
- CC(COc1ccccc1)NC(C)C(O)c1ccc(O)cc1 (stereo unspecified) [isoxsuprine] — higher, 103 °C
- C=C(CC(=O)O)C(=O)O [itaconic acid] — higher, 167 °C
- CCC(=O)C1(c2cccc(O)c2)CCN(C)CC1 [ketobemidone] — higher, 156 °C
- CC(=O)N1CCN(c2ccc(OCC3COC(Cn4ccnc4)(c4ccc(Cl)cc4Cl)O3)cc2)CC1 (stereo unspecified) [ketoconazole] — higher, 146 °C
- CC(C(=O)O)c1cccc(C(=O)c2ccccc2)c1 (stereo unspecified) [ketoprofen] — higher, 94 °C
- O=c1cc(CO)occ1O [kojic acid] — higher, 154 °C
- CC(O)C(=O)O (stereo unspecified) [lactic acid] — higher, 18 °C
- Cc1ccnc2ccccc12 [lepidine] — higher, 10 °C
- N#Cc1ccc(C(c2ccc(C#N)cc2)n2cncn2)cc1 [letrozole] — higher, 181 °C
- CCCCC/C=C\C/C=C\CCCCCCCC(=O)O [linoleic acid] — lower, -12 °C
- O=C1Nc2ccc(Cl)cc2C(c2ccccc2Cl)=NC1O (stereo unspecified) [lorazepam] — higher, 166 °C
- CC[C@H](C)C(=O)O[C@H]1C[C@@H](C)C=C2C=C[C@H](C)[C@H](CC[C@@H]3C[C@@H](O)CC(=O)O3)[C@H]21 [lovastatin] — higher, 175 °C
- O=C(O[C@@H]1[C@H]3C(=C/[C@H](C)C1)\C=C/[C@@H]([C@@H]3CC[C@H]2OC(=O)C[C@H](O)C2)C)[C@@H](C)CC [lovastatin] — higher, 174 °C
- O=C\1c3c(O/C(=C/1)c2ccc(O)c(O)c2)cc(O)cc3O [luteolin] — higher, 330 °C
- Cc1cccc(O)c1 [m-Cresol] — higher, 11 °C
- CC(=O)Oc1cccc(C(=O)O)c1 [m-acetoxy_benzoic_acid] — higher, 133 °C
- NC(=O)c1cccc(N)c1 [m-aminobenzamide] — higher, 115 °C
- O=C(O)c1cccc(Br)c1 [m-bromobenzoic_acid] — higher, 157 °C
- Brc1cccc(I)c1 [m-bromoiodobenzene] — lower, -9 °C
- Oc1cccc(Br)c1 [m-bromophenol] — higher, 31 °C
- Nc1cccc(Cl)c1 [m-chloroaniline] — lower, -10 °C
- O=Cc1cccc(Cl)c1 [m-chlorobenzaldehyde] — higher, 18 °C
- O=C(O)/C=C/c1cccc(Cl)c1 [m-chlorocinnamic_acid__(trans)] — higher, 159 °C
- Cc1cccc(O)c1 [m-cresol] [listing 1 of 2 here] — higher, 12 °C
- Cc1cccc(O)c1 [m-cresol] [listing 2 of 2 here] — higher, 11 °C
- Ic1cccc(I)c1 [m-diiodobenzene] — higher, 37 °C
- O=Cc1cccc(C(=O)O)c1 [m-formyl_benzoic_acid] — higher, 175 °C
- NC(=O)c1cccc(O)c1 [m-hydroxybenzamide] — higher, 170 °C
- Oc1cccc(I)c1 [m-iodophenol] — higher, 43 °C
- O=Cc1cccc([N+](=O)[O-])c1 [m-nitrobenzaldehyde] — higher, 59 °C
- NC(=O)c1cccc([N+](=O)[O-])c1 [m-nitrobenzamide] — higher, 143 °C
- O=C(O)c1cccc([N+](=O)[O-])c1 [m-nitrobenzoic_acid] — higher, 142 °C
- N#Cc1cccc([N+](=O)[O-])c1 [m-nitrobenzonitrile] — higher, 117 °C
- O=[N+]([O-])c1cccc(O)c1 [m-nitrophenol] — higher, 98 °C
- C=Cc1cccc([N+](=O)[O-])c1 [m-nitrostyrene] — lower, -5 °C
- Nc1cccc(N)c1 [m-phenylenediamine] — higher, 65 °C
- c1ccc(-c2cccc(-c3ccccc3)c2)cc1 [m-terphenyl] — higher, 87 °C
- Cc1cccc(N)c1 [m-toluidine] — lower, -30 °C
- Cc1cccc(C#N)c1 [m-tolunitrile] — lower, -23 °C
- CC(=O)Oc1cccc(C)c1 [m-tolyl_acetate] — higher, 12 °C
- C=Cc1cccc(O)c1 [m-vinyl_phenol] — higher, 1 °C
- NNC(=O)CC(=O)NN [malonic acid dihydrazide] — higher, 154 °C
- CCC(C)C(C)(COC(N)=O)COC(N)=O (stereo unspecified) [mebutamate] — higher, 77 °C
- Cc1nc2ccccc2c(=O)n1-c1ccccc1Cl [mecloqualone] — higher, 126 °C
- CC1CCC(C(C)C)C(O)C1 (stereo unspecified) [menthol] — higher, 45 °C
- CCC1(c2ccccc2)NC(=O)N(C)C1=O (stereo unspecified) [mephenytoin] [listing 1 of 2 here] — higher, 136 °C
- Cc1cc(C)c(C(=O)C(=O)O)c(C)c1 [mesitylglyoxylic acid] — higher, 121 °C
- OCC(O)C(O)CO (stereo not drawn) [meso-erythritol] — higher, 122 °C
- CCC(=O)C(C[C@H](C)N(C)C)(c1ccccc1)c1ccccc1 [methadone] — higher, 102 °C
- CS(=O)(=O)O [methanesulfonic acid] — higher, 20 °C
- COC(=O)C1Cc2ccccc2C(=O)O1 (stereo unspecified) [methyl 1-oxo-3,4-dihydro-1H-isochromene-3-carboxylate] — higher, 90 °C
- COC(=O)c1ccccc1NC(=O)c1ccccc1 [methyl 2-(benzoylamino)benzoate] — higher, 99 °C
- COC(=O)c1ccccc1S(=O)(=O)Cl [methyl 2-(chlorosulfonyl)benzoate] — higher, 62 °C
- COC(=O)c1cc(Br)ccc1NC(C)=O [methyl 2-acetamido-5-bromobenzoate] — higher, 134 °C
- COC(=O)C1(C)C(C(C)=O)=Nc2ccccc21 (stereo unspecified) [methyl 2-acetyl-3-methyl-3H-indole-3-carboxylate] — higher, 103 °C
- COC(=O)c1cc(Cl)ccc1N [methyl 2-amino-5-chlorobenzoate] — higher, 69 °C
- COC(=O)c1cc(F)ccc1N [methyl 2-amino-5-fluorobenzoate] — higher, 23 °C
- COC(=O)c1ccc([N+](=O)[O-])cc1Cl [methyl 2-chloro-4-nitrobenzoate] — higher, 76 °C
- COC(=O)c1cc(OC)c(OC)c(OC)c1 [methyl 3,4,5-trimethoxybenzoate] — higher, 85 °C
- COC(=O)c1ccc(N)c(N)c1 [methyl 3,4-diaminobenzoate] — higher, 107 °C
- COC(=O)Cc1ccc(Cl)c(Cl)c1 [methyl 3,4-dichlorophenylacetate] — higher, 29 °C
- COC(=O)c1cc(OC)c(O)c(OC)c1 [methyl 3,5-dimethoxy-4-hydroxybenzoate] — higher, 106 °C
- COC(=O)n1nc(C)cc1C [methyl 3,5-dimethyl-1H-pyrazole-1-carboxylate] — higher, 52 °C
- COC(=O)c1sc(-c2ccccc2)cc1N [methyl 3-amino-5-phenylthiophene-2-carboxylate] — higher, 147 °C
- COC(=O)c1cccc(Cl)c1 [methyl 3-chlorobenzoate] — higher, 21 °C
- COC(=O)c1sccc1Cl [methyl 3-chlorothiophene-2-carboxylate] — higher, 38 °C

For `CCC1(c2ccccc2)NC(=O)N(C)C1=O` (stereo unspecified) [mephenytoin] [listing 2 of 2 here], the melting point was 135 °C and 136 °C.
With `CO` [methanol] the melting point was -98 °C (6×) and -97.5 °C.
In the case of `Cn1cc[nH]c1=S` [methimazole], the melting point is reported as 146 °C (4×) and 147 °C.
